Like-named read-outs stand apart in the source and are kept apart here.
Assays:
[1] = system: Mobile stages of sea lice (pre-adults, adults of Lepeophtheirus salmonis); experiment: Adult sea lice contact assay; details: read-out: EC50 (sea lice inhibition, dead+damaged)
Procedure: Mobile stages of sea lice (i.e., pre-adults, adults of Lepeophtheirus salmonis) were exposed to seawater spiked with declining concentrations of a test compound (dissolved in a PEG sea-water mixture). Sea lice inhibition (% of dead+damaged sea lice) was assessed after approximately 1 and 24 hours of continuous exposure in comparison to a negative (solvent) control group.

[2] = system: Rhipicephalus appendiculatus; experiment: Cattle - efficacy against multi-host ticks (Rhipicephalus appendiculatus); assay type: in vivo; details: for effective in treating existing tick infestations: 5 mg/kg, both administration routes (topical, subcutaneous)
Procedure: (§1) Cattle were treated subcutaneously or topically (pour-on) at a dose of 5 mg/kg bodyweight of a test compound (Day 0). As subcutaneous formulation NMP 60%/PEG300 40% was used, and as pour-on formulation DMA 92%/DEET 8% was used. Cattle of the negative control group received only the formulation excipients of both formulations (SC, pour-on).
(§2) Cattle were locally infested with 30 to 40 unfed adult ticks each of Rhipicephalus appendiculatus and Dermacenter variabilis (for both species sex ratio 1:1), by placing the ticks in an ear sleeve (R. appendiculatus) or a stockinet patch attached to the body side (D. variabilis) once before treatment, and at different time points after treatment. Free (i.e., non-attached ticks) were removed from ear sleeves/stockinet patches two days after each infestation and were excluded from the efficacy calculation.
(§3) Compounds with efficacy ≥80 percent were found active.

[3] = system: juvenile soft ticks (Ornithodoros moubata); experiment: Guinea pig - efficacy against argaside tick; assay type: in vivo
Procedure, shortened: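 Guinea pigs given 5 mg/kg test compound orally (gavage) or s.c. in 10% DMF/emulsifier plus 90% water for injection, with local co-infestations of Ornithodoros moubata juveniles and Cimex lectularius at several post-treatment times. Engorged parasites scored dead/damaged about 24 h after collection; % inhibition versus pretreatment baseline by modified Schneider-Orelli formula.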

[4] = system: Rhipicephalus sanguineus or Haemaphysalis elliptica ticks; experiment: Dog - efficacy against ticks; assay type: in vivo; details: for efficacy against ticks in dogs (conclusion): 10 mg/kg; for therapeutic efficacy against ticks (active = efficacy ≥80 percent): D2; for active against ticks up to (efficacy ≥80 percent): repeated infestations
Procedure: (§4) Beagle dogs were infested (whole body) with 80 Ctenocephalides felis fleas and 50 Rhipicephalus sanguineus or Haemaphysalis elliptica ticks (sex ratio 1:1) two days before the treatment day (Day 0), and repeatedly thereafter. Dogs of treatment groups were treated with 10 mg/kg bodyweight of a test compound orally (compound weighed in gelatin capsule), topically (spot-on, DMA 92%/DEET 8%) or subcutaneously (PEG 200 90%/water for injection 10%). Dogs of the negative control group received only an empty gelatin capsule orally and the spot-on formulation excipients topically.
as §3

Lepeophtheirus salmonis = experiment: Salmon - in vivo efficacy against sea lice using gavage administration; details: po, 168 h
Dermacenter variabilis = experiment: Cattle - efficacy against multi-host ticks (Dermacenter variabilis); assay type: in vivo; details: for effective in treating existing tick infestations: 5 mg/kg, both administration routes (topical, subcutaneous)
Procedure: as §1, §2, §3

Rhipicephalus microplus = experiment: Cattle - efficacy against one-host tick; assay type: in vivo
Procedure, shortened: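 Cattle infested whole-body with up to 3000 R. microplus larvae two or three times weekly around Day 0, then given 1 mg/kg subcutaneously or topically (spray or pour-on); controls got excipients only. Engorged females dropping were counted daily; efficacy by ADEQ per WAAVP guidelines, onset/duration as first/last day ≥80%.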

[5] = system: Ctenocephalides felis fleas; experiment: Dog - efficacy against fleas; assay type: in vivo; details: for efficacy against fleas in dogs (conclusion): 10 mg/kg; for therapeutic efficacy against fleas (active = efficacy ≥80 percent): D2
Procedure: as §4, §3

[6] = system: Copepodids (juvenile sea lice stage of Lepeophtheirus salmonis); experiment: Juvenile sea lice contact assay; details: Lepeophtheirus salmonis, read-out: Sea lice inhibition (% of dead+damaged copepodids)
Procedure: Copepodids (juvenile sea lice stage of Lepeophtheirus salmonis) were exposed to seawater spiked with declining concentrations of a test compound (dissolved in a DMSO sea-water mixture). Sea lice inhibition (% of dead+damaged copepodids) was assessed after approximately 24 hours of continuous exposure. The vitality of used parasites was confirmed in a negative (solvent) control group.

[7] = 5 mg/kg subcutaneous, re-infested after 7 days
[8] = 5 mg/kg subcutaneous, re-infested after 14 days
[9] = 5 mg/kg subcutaneous, re-infested after 21 days
[10] = 5 mg/kg subcutaneous, re-infested after 28 days
[11] = 5 mg/kg subcutaneous, re-infested after 35 days
[12] = 5 mg/kg subcutaneous, therapeutic, Day 2
[13] = 5 mg/kg topical pour-on, re-infested after 7 days
[14] = 5 mg/kg topical pour-on, re-infested after 14 days
[15] = 5 mg/kg topical pour-on, re-infested after 21 days
[16] = 5 mg/kg topical pour-on, re-infested after 28 days
[17] = 5 mg/kg topical pour-on, re-infested after 35 days
[18] = 5 mg/kg topical pour-on, therapeutic, Day 2
[19] = 5 mg/kg subcutaneous, after 7 days
[20] = 5 mg/kg subcutaneous, after 10 days
[21] = 1 mg/kg topical (Compound 4: spray solution; others: DMA 92%/DEET 8% pour-on)
[22] = 1 mg/kg pour on in Imwitor 988+Miglyol 840

SMILES: O=C(Nc1ccc(F)cc1F)c1cc(NC(=O)[C@H]2[C@H](c3ccc(F)c(Cl)c3)C2(Cl)Cl)ccc1Cl [Compound 197]
- EC50 [1]: 10 to 25 nM
- efficacy ≥80 percent against Rhipicephalus appendiculatus [2, 7]: prophylactic efficacy
- efficacy ≥80 percent against Rhipicephalus appendiculatus [2, 8]: prophylactic efficacy
- efficacy ≥80 percent against Rhipicephalus appendiculatus [2, 9]: prophylactic efficacy
- efficacy ≥80 percent against Rhipicephalus appendiculatus [2, 10]: prophylactic efficacy
- efficacy ≥80 percent against Rhipicephalus appendiculatus [2, 11]: prophylactic efficacy
- efficacy ≥80 percent against Rhipicephalus appendiculatus [2, 12]: therapeutic efficacy
- efficacy ≥80 percent against Rhipicephalus appendiculatus [2, 13]: prophylactic efficacy
- efficacy ≥80 percent against Rhipicephalus appendiculatus [2, 14]: prophylactic efficacy
- efficacy ≥80 percent against Rhipicephalus appendiculatus [2, 15]: prophylactic efficacy
- efficacy ≥80 percent against Rhipicephalus appendiculatus [2, 16]: prophylactic efficacy
- efficacy ≥80 percent against Rhipicephalus appendiculatus [2, 17]: prophylactic efficacy
- efficacy ≥80 percent against Rhipicephalus appendiculatus [2, 18]: therapeutic efficacy
- effective in treating existing tick infestations [2]: 100%
- activity against tick nymphs (≥80% inhibition, killed+damaged) ([3]; 5 mg/kg oral, Day 0): immediate activity
- activity against tick nymphs (≥80% inhibition, killed+damaged) ([3]; 5 mg/kg oral, after 7 days): activity
- activity against tick nymphs (≥80% inhibition, killed+damaged) ([3]; 5 mg/kg subcutaneous, Day 0): immediate activity
- activity against tick nymphs (≥80% inhibition, killed+damaged) [3, 19]: activity
- activity against tick nymphs (≥80% inhibition, killed+damaged) [3, 20]: activity
- duration of efficacy, subcutaneous compared with oral administration ([3]; 5 mg/kg, ticks and bed bugs): longer duration of efficacy
- efficacy against ticks in dogs (conclusion) [4]: therapeutic efficacy
- therapeutic efficacy against ticks (active = efficacy ≥80 percent) ([4]; 10 mg/kg oral): active
- active against ticks up to (efficacy ≥80 percent) ([4]; 10 mg/kg topical spot-on): 70/72
- inhibition in vivo at 5 mg/kg (Lepeophtheirus salmonis; read-out: therapeutic efficacy against (pre-)adult sea lice (% reduction vs control)): 80%
- efficacy ≥80 percent against Dermacenter variabilis (Dermacenter variabilis; [7]): prophylactic efficacy
- efficacy ≥80 percent against Dermacenter variabilis (Dermacenter variabilis; [8]): prophylactic efficacy
- efficacy ≥80 percent against Dermacenter variabilis (Dermacenter variabilis; [9]): prophylactic efficacy
- efficacy ≥80 percent against Dermacenter variabilis (Dermacenter variabilis; [10]): prophylactic efficacy
- efficacy ≥80 percent against Dermacenter variabilis (Dermacenter variabilis; [12]): therapeutic efficacy
- efficacy ≥80 percent against Dermacenter variabilis (Dermacenter variabilis; [13]): prophylactic efficacy
- efficacy ≥80 percent against Dermacenter variabilis (Dermacenter variabilis; [14]): prophylactic efficacy
- efficacy ≥80 percent against Dermacenter variabilis (Dermacenter variabilis; [15]): prophylactic efficacy
- efficacy ≥80 percent against Dermacenter variabilis (Dermacenter variabilis; [18]): therapeutic efficacy
- effective in treating existing tick infestations (Dermacenter variabilis): 100%
- duration of efficacy (last Day with efficacy ≥80 percent) (Rhipicephalus microplus; 1 mg/kg subcutaneous): ≥ 120 days
- onset of efficacy (first Day with efficacy ≥80 percent) (Rhipicephalus microplus; 1 mg/kg subcutaneous): 3 days
- duration of efficacy (last Day with efficacy ≥80 percent) (Rhipicephalus microplus; [21]): 47 days
- onset of efficacy (first Day with efficacy ≥80 percent) (Rhipicephalus microplus; [21]): 2 days
- efficacy against fleas in dogs (conclusion) [5]: therapeutic efficacy
- therapeutic efficacy against fleas (active = efficacy ≥80 percent) ([5]; 10 mg/kg oral): active
- therapeutic efficacy against fleas (active = efficacy ≥80 percent) ([5]; 10 mg/kg topical spot-on): active
- inhibition at 0.001 µM ([6]; 24 h): 100%

SMILES: O=C(Nc1ncc(F)cc1F)c1cc(NC(=O)[C@H]2[C@H](c3cc(Cl)cc(Cl)c3)C2(Cl)Cl)ccc1Cl [Compound 453]
- EC50 ([1]; pre-adults/adults, assessed after ~1 and 24 h): ≤ 10 nM
- efficacy ≥80 percent against Rhipicephalus appendiculatus [2, 7]: prophylactic efficacy
- efficacy ≥80 percent against Rhipicephalus appendiculatus [2, 8]: prophylactic efficacy
- efficacy ≥80 percent against Rhipicephalus appendiculatus [2, 9]: prophylactic efficacy
- efficacy ≥80 percent against Rhipicephalus appendiculatus [2, 10]: prophylactic efficacy
- efficacy ≥80 percent against Rhipicephalus appendiculatus [2, 11]: prophylactic efficacy
- efficacy ≥80 percent against Rhipicephalus appendiculatus [2, 12]: therapeutic efficacy
- efficacy ≥80 percent against Rhipicephalus appendiculatus [2, 13]: prophylactic efficacy
- efficacy ≥80 percent against Rhipicephalus appendiculatus [2, 14]: prophylactic efficacy
- efficacy ≥80 percent against Rhipicephalus appendiculatus [2, 15]: prophylactic efficacy
- efficacy ≥80 percent against Rhipicephalus appendiculatus [2, 16]: prophylactic efficacy
- efficacy ≥80 percent against Rhipicephalus appendiculatus [2, 17]: prophylactic efficacy
- efficacy ≥80 percent against Rhipicephalus appendiculatus [2, 18]: therapeutic efficacy
- effective in treating existing tick infestations [2]: 100%
- activity against tick nymphs (≥80% inhibition, killed+damaged) ([3]; 5 mg/kg oral, Day 0): immediate activity
- activity against tick nymphs (≥80% inhibition, killed+damaged) ([3]; 5 mg/kg oral, after 7 days): activity
- activity against tick nymphs (≥80% inhibition, killed+damaged) ([3]; 5 mg/kg oral, after 10 days): activity
- activity against tick nymphs (≥80% inhibition, killed+damaged) ([3]; 5 mg/kg subcutaneous, Day 0): immediate activity
- activity against tick nymphs (≥80% inhibition, killed+damaged) [3, 19]: activity
- activity against tick nymphs (≥80% inhibition, killed+damaged) [3, 20]: activity
- effective to control ticks ([3]; 5 mg/kg, at least until Day 10, both administration routes (oral, subcutaneous)): 100%
- efficacy against ticks in dogs (conclusion) [4]: therapeutic efficacy
- therapeutic efficacy against ticks (active = efficacy ≥80 percent) ([4]; 10 mg/kg oral): active
- therapeutic efficacy against ticks (active = efficacy ≥80 percent) ([4]; 10 mg/kg topical spot-on): active
- active against ticks up to (efficacy ≥80 percent) ([4]; 10 mg/kg topical spot-on): 70/72
- inhibition in vivo at 5 mg/kg (Lepeophtheirus salmonis; read-out: therapeutic efficacy against (pre-)adult sea lice (% reduction vs control), salmon, 5 mg/kg once by gavage, day -28 infestation, counted day 7): 100%
- efficacy ≥80 percent against Dermacenter variabilis (Dermacenter variabilis; [7]): prophylactic efficacy
- efficacy ≥80 percent against Dermacenter variabilis (Dermacenter variabilis; [8]): prophylactic efficacy
- efficacy ≥80 percent against Dermacenter variabilis (Dermacenter variabilis; [9]): prophylactic efficacy
- efficacy ≥80 percent against Dermacenter variabilis (Dermacenter variabilis; [10]): prophylactic efficacy
- efficacy ≥80 percent against Dermacenter variabilis (Dermacenter variabilis; [11]): prophylactic efficacy
- efficacy ≥80 percent against Dermacenter variabilis (Dermacenter variabilis; [12]): therapeutic efficacy
- efficacy ≥80 percent against Dermacenter variabilis (Dermacenter variabilis; [13]): prophylactic efficacy
- efficacy ≥80 percent against Dermacenter variabilis (Dermacenter variabilis; [14]): prophylactic efficacy
- efficacy ≥80 percent against Dermacenter variabilis (Dermacenter variabilis; [15]): prophylactic efficacy
- efficacy ≥80 percent against Dermacenter variabilis (Dermacenter variabilis; [16]): prophylactic efficacy
- efficacy ≥80 percent against Dermacenter variabilis (Dermacenter variabilis; [17]): prophylactic efficacy
- efficacy ≥80 percent against Dermacenter variabilis (Dermacenter variabilis; [18]): therapeutic efficacy
- effective in treating existing tick infestations (Dermacenter variabilis): 100%
- duration of efficacy (last Day with efficacy ≥80 percent) (Rhipicephalus microplus; [22]): 77 days
- onset of efficacy (first Day with efficacy ≥80 percent) (Rhipicephalus microplus; [22]): 1 days
- duration of efficacy (last Day with efficacy ≥80 percent) (Rhipicephalus microplus; 1 mg/kg pour on in Miglyol 840): 84 days
- onset of efficacy (first Day with efficacy ≥80 percent) (Rhipicephalus microplus; 1 mg/kg pour on in Miglyol 840): 2 days
- duration of efficacy (last Day with efficacy ≥80 percent) (Rhipicephalus microplus; 1 mg/kg subcutaneous): 82 days
- onset of efficacy (first Day with efficacy ≥80 percent) (Rhipicephalus microplus; 1 mg/kg subcutaneous): 3 days
- duration of efficacy (last Day with efficacy ≥80 percent) (Rhipicephalus microplus; [21]): 63 days
- onset of efficacy (first Day with efficacy ≥80 percent) (Rhipicephalus microplus; [21]): 3 days
- efficacy against fleas in dogs (conclusion) [5]: therapeutic efficacy
- therapeutic efficacy against fleas (active = efficacy ≥80 percent) ([5]; 10 mg/kg oral): active
- therapeutic efficacy against fleas (active = efficacy ≥80 percent) ([5]; 10 mg/kg topical spot-on): active
- inhibition at 0.001 µM ([6]; 1 nM in seawater, ~24 h): 100%

— patent US20240315993A1, “ANTIPARASITIC COMPOUNDS” (Intervet Inc., priority 2021, published 2024)
